Broadly, the ED50 is the dose at which the effect has come halfway, by size or by number of responders. A lower ED50 goes with an effect at a small dose.

Results on eleven compounds are retold here after patent US4010264A, “7-[3-Substituted isoxazol-5-yl]-acetamido-cephalosporanic acids and their anti-bacterial use” (Koninklijke Nederlandsche Gist-en Spiritusfabriek N.V., priority 1970, dated 1977).

Converted amounts (≈) assume the structure as drawn. Where a name gives a salt, the structure may show the parent alone. Read-outs that look alike come from different tables or passages of the source. A value given as a limit tells only on which side of the number the result lay.

For test [1], the system named is Bacillus subtilis ATCC 6633. The experiment in a line: MIC, agar serial dilution test. Type of test: cell-based.
Test [2] concerns Staphylococcus aureus A55. Kind of test: MIC, agar serial dilution test. Type of test: cell-based.
The subject of test [3] is Staphylococcus aureus A321. The experiment in a line: MIC, agar serial dilution test. Type of test: cell-based.
Test [4] relates to Streptococcus haemolyticus A266. Kind of test: MIC, agar serial dilution test. Type of test: cell-based.
For test [5], the system named is Streptococcus faecalis L 80. Kind of test: MIC, agar serial dilution test. It counts as cell-based. Particulars: Enterococcus faecalis.
For test [6], the system named is Diplococcus pneumoniae L 54. The experiment in a line: MIC, agar serial dilution test. It counts as cell-based. To be noted: Streptococcus pneumoniae.
Test [7] relates to Brucella melitensis A488. The experiment in a line: microbe, parasite or virus in culture. Type of test: cell-based. To be noted: A488, 24 h.
The subject of test [8] is Pasteurella multocida A723. Kind of test: MIC, agar serial dilution test. Type of test: cell-based.
The subject of test [9] is Klebsiella pneumoniae A809. Kind of test: MIC, agar serial dilution test. Type of test: cell-based.
The test system of test [10] is Staphylococcus aureus A355 (penicillinase-producing). The experiment in a line: MIC, agar serial dilution test. Particulars: 24 h.
The subject of test [11] is Staphylococcus aureus L160a (penicillinase-producing). The experiment in a line: MIC, agar serial dilution test. Particulars: 24 h.
The test system of test [12] is Staphylococcus aureus A 321. The experiment in a line: in vivo infection test in mice. To be noted: A321, in Mus musculus.
In test [13] the test system is Proteus mirabilis O.T. Kind of test: in vivo infection test in mice. To be noted: in Mus musculus.
Test [14] concerns Pseudomonas aeruginosa A 1058. The experiment in a line: in vivo infection test in mice. Particulars: A1058, in Mus musculus, po.
The subject of test [15] is Staphylococcus aureus A 2001. The experiment in a line: in vivo infection test in mice. To be noted: A2001, in Mus musculus.
The subject of test [16] is Staphylococcus aureus A 2000. Kind of test: in vivo infection test in mice. Particulars: A2000, in Mus musculus.
Setting [17] is: ATCC6633, Bacillus subtilis ATCC 6633, 24 hours at 37° C, read-out: MIC.
The mark [18] stands for this setting: Staphylococcus aureus A55, 24 hours at 37° C, read-out: MIC.
Where [19] appears, read: Staphylococcus aureus A321, 24 hours at 37° C, read-out: MIC.
Setting [20] is: Streptococcus haemolyticus A266, 24 hours at 37° C, read-out: MIC.
Setting [21] is: L80, Streptococcus faecalis L 80, 24 hours at 37° C, read-out: MIC.
Setting [22] is: L54, Diplococcus pneumoniae L 54, 24 hours at 37° C, read-out: MIC.
The mark [23] stands for this setting: Pasteurella multocida A723, 24 hours at 37° C, read-out: MIC.
The mark [24] stands for this setting: Klebsiella pneumoniae A809, 24 hours at 37° C, read-out: MIC.

Regarding `Cc1cc(C)c(-c2cc(C(Cl)C(=O)NC3C(=O)N4C3SC(C)(C)C4C(=O)O)on2)c(C)c1` (stereo not drawn) [Example IX, Cyclohexylamine salt of 6-{α-chloro-[3-(2,4,6-trimethyl)phenyl-isoxazol-5-yl]acetamido}penicillanic acid], the MIC in test [1] (setting [17]) is 0.12 µg/mL; in test [2] (setting [18]), 0.25 µg/mL; in test [3] (setting [19]), 0.25 µg/mL; in test [4] (setting [20]), 0.06 µg/mL; in test [5] (setting [21]) it was 1.5 µg/mL; in test [6] (setting [22]), 0.12 µg/mL. For the same compound, the MIC is 25 µg/mL in test [7]; 25 µg/mL in [8] (setting [23]); above 100 µg/mL in [9] (setting [24]); 25 µg/mL in test [10]; 25 µg/mL in test [11]. Also, the ED50 in [12] (ip) was above 21.5 mg/kg; in test [12] (po), above 100 mg/kg.
`CC1(C)S[C@@H]2C(NC(=O)Cc3onc(-c4c(Cl)cccc4Cl)c3C(=O)O)C(=O)N2[C@H]1C(=O)O` (stereo partly drawn) [Example V, 6-{[3-(2,6-dichlorophenyl)-4-carboxyisoxazol-5-yl]acetamido}penicillanic acid]: the MIC is 0.5 µg/mL (≈ 0.972 µM) in [1] (setting [17]); 1 µg/mL (≈ 1.94 µM) in test [2] (setting [18]); 1 µg/mL (≈ 1.94 µM) in [3] (setting [19]); 0.5 µg/mL (≈ 0.972 µM) in test [4] (setting [20]); 25 µg/mL (≈ 48.6 µM) in [5] (setting [21]); 6 µg/mL (≈ 11.7 µM) in test [6] (setting [22]). Moreover, the MIC was 25 µg/mL (≈ 48.6 µM) in [7]; 1.5 µg/mL (≈ 2.92 µM) in [8] (setting [23]); above 100 µg/mL in test [9] (setting [24]); 12.5 µg/mL (≈ 24.3 µM) in test [10]; 3 µg/mL (≈ 5.83 µM) in test [11]. For the same compound, the ED50 in test [12] (ip) was below 100 mg/kg; in test [12] (po), above 215 mg/kg; in test [13] (ip) it was above 300 mg/kg; in test [13] (po), above 300 mg/kg.
As to `Cc1cc(C)c(-c2cc(C(C)C(=O)NC3C(=O)N4C3SC(C)(C)C4C(=O)O)on2)c(C)c1` (stereo not drawn) [Example XI, Cyclohexylamine salt of 6{α-methyl-[3-(2,4,6-trimethyl)phenylisoxazol-5-yl]acetamido}penicillanic acid], the MIC in test [1] (setting [17]) came to 0.06 µg/mL; in [2] (setting [18]), 0.12 µg/mL; in test [3] (setting [19]), 0.06 µg/mL; in test [4] (setting [20]), 0.007 µg/mL; in test [5] (setting [21]) it was 1.5 µg/mL; in [6] (setting [22]), 0.12 µg/mL. In addition, the MIC came out at 3 µg/mL in [7]; 50 µg/mL in test [8] (setting [23]); 100 µg/mL in [9] (setting [24]); 12.5 µg/mL in test [10]; 12.5 µg/mL in test [11]. Moreover, the ED50 is above 21.5 mg/kg in test [12] (ip); above 100 mg/kg in test [12] (po); above 300 mg/kg in test [14]; above 300 mg/kg in test [13] (ip); above 300 mg/kg in test [13] (po).
For `CCC(Oc1ccccc1)C(=O)N[C@@H]1C(=O)N2[C@@H]1SC(C)(C)[C@@H]2C(=O)O` (stereo partly drawn) [Propicillin, reference compound], the ED50 is 10.8 mg/kg in test [12] (po); 2.33 mg/kg in [12] (sc); 133 mg/kg in test [15] (ip); above 215 mg/kg in test [15] (po); above 215 mg/kg in [15] (sc); 88 mg/kg in [16] (ip). The ED50 in [16] (po) and in test [16] (sc) was above 215 mg/kg throughout.
For `Cc1cc(C)c(-c2cc(CC(=O)NC3C(=O)N4C3SC(C)(C)C4C(=O)O)on2)c(C)c1` (stereo not drawn) [VI, Sodium salt of 6-{[3-(2,4,6-trimethyl)phenylisoxazol-5-yl]acetamido}penicillanic acid], the MIC in test [1] (setting [17]) was determined as 0.03 µg/mL; in [2] (setting [18]), 0.06 µg/mL; in test [3] (setting [19]) it was 0.06 µg/mL; in test [4] (setting [20]), 0.012 µg/mL; in [5] (setting [21]), 0.25 µg/mL; in [6] (setting [22]), 0.03 µg/mL. Further, the MIC was found to be 3 µg/mL in [7]; 12.5 µg/mL in test [8] (setting [23]); 100 µg/mL in test [9] (setting [24]); 3 µg/mL in test [10]; 0.5 µg/mL in test [11].
As for `CC1=C(C(=O)O)N2C(=O)C(NC(=O)Cc3onc(-c4c(Cl)cccc4Cl)c3C)C2SC1` (stereo not drawn) [VIII, 7-{[3-(2,6-dichloro)phenyl-4-methyl-isoxazol-5-yl]acetamidodesacetoxycephalosporanic}acid], the MIC in test [1] (setting [17]) was found to be 0.25 µg/mL (≈ 0.518 µM); in test [2] (setting [18]), 1.5 µg/mL (≈ 3.11 µM); in test [3] (setting [19]), 0.5 µg/mL (≈ 1.04 µM); in test [4] (setting [20]), 0.25 µg/mL (≈ 0.518 µM); in [5] (setting [21]), 100 µg/mL (≈ 207 µM); in test [6] (setting [22]) it was 1 µg/mL (≈ 2.07 µM). For the same compound, the MIC was 12.5 µg/mL (≈ 25.9 µM) in test [7]; 100 µg/mL (≈ 207 µM) in test [8] (setting [23]); above 100 µg/mL in test [9] (setting [24]); 3 µg/mL (≈ 6.22 µM) in [10]; 3 µg/mL (≈ 6.22 µM) in [11].
Consider `CC(=O)OCC1=C(C(=O)O)N2C(=O)C(NC(=O)Cc3onc(-c4c(C)cc(C)cc4C)c3C)C2SC1` (stereo not drawn) [XII, Sodium salt of 7-{[3-(2,4,6-trimethyl)phenyl-4-methyl-isoxazol-5-yl]acetamido}cephalosporanic acid], for which the MIC in [1] (setting [17]) is 0.06 µg/mL; in test [2] (setting [18]), 0.25 µg/mL; in test [3] (setting [19]) it was 0.12 µg/mL; in test [4] (setting [20]), 0.06 µg/mL; in test [5] (setting [21]), 6 µg/mL; in test [6] (setting [22]) it was 0.06 µg/mL. In addition, the MIC in [7] is 50 µg/mL; in test [8] (setting [23]), 100 µg/mL; in test [9] (setting [24]), above 100 µg/mL; in [10], 0.25 µg/mL; in [11] it was 0.25 µg/mL.
For the compound `CC1=C(C(=O)O)N2C(=O)C(NC(=O)Cc3onc(-c4c(C)cc(C)cc4C)c3C)C2SC1` (stereo not drawn) [XIII, Sodium salt of 7-{[3-(2,4,6-trimethyl)phenyl-4-phenyl-methyl-isoxazol-5-yl]acetamido}desacetoxycephalosporanic acid], the MIC in test [1] (setting [17]) was found to be 1 µg/mL; in test [2] (setting [18]), 3 µg/mL; in test [3] (setting [19]), 1.5 µg/mL; in [4] (setting [20]), 0.6 µg/mL; in [5] (setting [21]), 100 µg/mL; in [6] (setting [22]), 1.5 µg/mL. For the same compound, the MIC is above 100 µg/mL in test [7]; above 100 µg/mL in [8] (setting [23]); above 100 µg/mL in test [9] (setting [24]); 6 µg/mL in test [10]; 6 µg/mL in test [11].
On to `CC1(C)SC2C(NC(=O)Cc3onc(-c4c(Cl)cccc4Cl)c3C(N)=O)C(=O)N2C1C(=O)O` (stereo not drawn) [XIV, 6-{[3-(2,6-dichloro)phenyl-4-carbamyl-isoxazol-5-yl]acetamido} penicillanic acid], for which the MIC was found to be 3 µg/mL (≈ 5.84 µM) in [1] (setting [17]); 12.5 µg/mL (≈ 24.3 µM) in test [2] (setting [18]); 12.5 µg/mL (≈ 24.3 µM) in test [3] (setting [19]); 1.5 µg/mL (≈ 2.92 µM) in [4] (setting [20]); 50 µg/mL (≈ 97.4 µM) in test [5] (setting [21]); 6 µg/mL (≈ 11.7 µM) in test [6] (setting [22]). The MIC in test [7] was 50 µg/mL (≈ 97.4 µM); in [8] (setting [23]), 50 µg/mL (≈ 97.4 µM); in [9] (setting [24]), above 100 µg/mL; in test [10], above 100 µg/mL; in [11], above 100 µg/mL.
`CC1(C)SC2C(NC(=O)Cc3cc(-c4ccc([N+](=O)[O-])cc4)no3)C(=O)N2C1C(=O)O` (stereo not drawn) [XIX, Sodium salt of 6-{[3-p-nitrophenyl-isoxazol-5-yl]acetamido}penicillanic acid]: the MIC was below 0.015 µg/mL in [1] (setting [17]); 0.03 µg/mL in [2] (setting [18]); 0.03 µg/mL in [3] (setting [19]); 1.5 µg/mL in [4] (setting [20]); 1 µg/mL in test [5] (setting [21]); 0.03 µg/mL in [6] (setting [22]). Also, the MIC in test [7] was 0.12 µg/mL; in test [8] (setting [23]) it was 1 µg/mL; in test [9] (setting [24]) it was 100 µg/mL; in test [10], 1 µg/mL; in [11], 3 µg/mL.
`CC(=O)OCC1=C(C(=O)[O-])N2C(=O)C(NC(=O)Cc3onc(C)c3Cl)[C@H]2SC1.[Na+]` (stereo partly drawn) [XXXV, Sodium 7{[3-methyl-4-chloroisoxazole-5 yl]acetamido}-3-acetoxymethyl-3-cephem-4carboxylate]: the MIC in test [1] (Bacillus subtilis, ATCC6633, 24 h) amounted to 0.06 µg/mL; in [2] (Staphylococcus aureus, A55, 24 h), 0.25 µg/mL; in test [3] (Staphylococcus aureus, A321, 24 h), 0.25 µg/mL; in test [4] (Streptococcus, A266, 24 h) it was 0.06 µg/mL; in test [5] (L80, 24 h), 25 µg/mL; in test [6] (L54, 24 h), 1 µg/mL. In addition, the MIC in test [7] is 0.06 µg/mL; in test [8] (Pasteurella multocida, A723, 24 h), 0.75 µg/mL; in test [9] (Klebsiella pneumoniae, A809, 24 h), 1.5 µg/mL; in [10], 0.5 µg/mL; in [11] it was 0.5 µg/mL.
